Key:
[1] = test system: Human-derived normal fibroblasts; assay: Cell proliferation efficacy (MTT method); type: cell-based; settings: 10 μM, 72 hours culture, FIG. 1
Method: • 1) Human-derived normal fibroblasts were cultured. • 2) The cells were inoculated in an appropriate number, and after 24 hours, starvation was performed for 24 hours. • 3) The cells were cultured for 72 hours in media treated with samples at different concentrations, respectively. • 4) Cell activity was measured and analyzed by the MTT method.

[2] = Antioxidant efficacy (DPPH assay); type: biochemical; settings: 1 μM to 50 μM, absorbance at 517 nm, FIG. 2
Method: • 1) 115 μL of 70% ethanol was dispensed to each of 96 wells. • 2) 5 μL of each sample and positive control was dispensed, and the absorbance was measured at 517 nm to measure the absorbance before the reaction. • 3) 80 μL of a DPPH solution was dispensed. • 4) After the reaction, the absorbance was measured at 517 nm, and the result was analyzed by using the absorbance values before and after the reaction.

B16F10 cells [3] = assay: Whitening efficacy: inhibition of B16F10 intracellular melanin synthesis; type: cell-based; settings: 10 μM to 50 μM, α-MSH treated B16F10 cells, 72 hours, FIG. 3
Method: • 1) B16F10 cells were cultured. • 2) The cells were inoculated in an appropriate number, and after 24 hours, all groups except blank were treated with α-MSH and samples, respectively. • 3) The cells were cultured for 72 hours in culture media treated with respective samples. • 4) The cells were lysed, the supernatant was separated, and the absorbance value of the supernatant was measured. • 5) The amount of protein in each supernatant was measured and analyzed by the BCA method. • 6) The melanin synthesis value measured in the supernatant was corrected into the amount of protein to calculate the amount of melanin synthesis per unit cell.

B16F10 cells [4] = assay: Whitening efficacy: inhibition of B16F10 extracellular melanin synthesis; type: cell-based; settings: 10 μM to 50 μM, α-MSH treated B16F10 cells, 72 hours, culture media, FIG. 4
Method: • 1) B16F10 cells were cultured. • 2) The cells were inoculated in an appropriate number, and after 24 hours, all groups except blank were treated with α-MSH and samples, respectively. • 3) The cells were cultured for 72 hours in culture media treated with respective samples. • 4) The absorbance values of the cell culture media were measured. • 5) The cells were lysed, the supernatant was separated, and the amount of protein was measured by the BCA method to correct the amount of melanin synthesis. • 6) The measured melanin synthesis value was corrected into the amount of protein to calculate the amount of melanin synthesis per unit cell.

[5] = target: T1, tyrosinase (melanin synthase) (Homo sapiens, UniProt P14679); assay: Whitening efficacy: inhibition of tyrosinase activity in pigment cells; type: cell-based; settings: 1 μM to 50 μM, human-derived normal pigment cells, 72 hours, FIG. 5
T1 construct: The cells were lysed, the supernatant was separated; endogenous in cells; host or cells: human-derived normal pigment cells
T1 sequence (P14679 19-529): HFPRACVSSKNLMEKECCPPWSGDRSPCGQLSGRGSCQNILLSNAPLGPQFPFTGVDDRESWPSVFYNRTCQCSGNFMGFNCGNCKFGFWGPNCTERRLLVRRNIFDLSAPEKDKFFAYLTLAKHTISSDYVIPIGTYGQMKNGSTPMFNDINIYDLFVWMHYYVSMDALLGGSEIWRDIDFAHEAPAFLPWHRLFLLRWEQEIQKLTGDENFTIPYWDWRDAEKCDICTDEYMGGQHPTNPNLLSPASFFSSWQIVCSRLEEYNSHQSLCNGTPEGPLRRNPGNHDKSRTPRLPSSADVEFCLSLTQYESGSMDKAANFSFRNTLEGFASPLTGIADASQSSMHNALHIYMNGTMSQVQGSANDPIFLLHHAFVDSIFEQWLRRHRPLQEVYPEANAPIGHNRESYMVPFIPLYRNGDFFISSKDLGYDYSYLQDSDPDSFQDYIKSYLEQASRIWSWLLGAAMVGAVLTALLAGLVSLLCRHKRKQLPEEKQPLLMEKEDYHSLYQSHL
Method: • 1) Human-derived normal pigment cells were inoculated in an appropriate number and cultured for 1 day. • 2) The culture medium was replaced with culture media treated with respective samples and cultured for 72 hours. • 3) The cells were lysed, the supernatant was separated, and the absorbance value of the supernatant was measured at 475 nm at 30 minute intervals while the supernatant was allowed to react with dopa, a reactant, at 37° C. • 4) The amount of protein in the cell lysis supernatant was measured by the BCA method to correct a tyrosinase (melanin synthase) measurement value.

[6] = test system: Human-derived normal fibroblasts; assay: Wrinkle improvement efficacy (collagen synthesis); type: cell-based; settings: 10 μM to 20 μM, UV-irradiated fibroblasts, FIG. 6
Method: • 1) Human-derived normal fibroblasts were inoculated at 2×10^5/6 well and cultured. • 2) Culture was performed for 1 day under starvation conditions. • 3) The cells were treated with samples at different concentrations, respectively, and cultured for 24 hours. • 4) The cells were washed and then irradiated with UV, followed by culture for 48 hours. • 5) The amount of collagen expression in the cell culture medium was measured and analyzed.

Propionibacterium acnes = assay: Anti-acne efficacy (antibacterial efficacy); type: cell-based; settings: 20 μM to 200 μM, 72 hours anaerobic culture, FIG. 7
Method: • 1) Propionibacterium acnes, anaerobic acne bacteria, were cultured under anaerobic culture conditions. • 2) The strain was prepared by adjusting the turbidity to McFarland standard NO. 1, followed by dilution of 1/20 in a liquid culture medium. • 3) Liquid nutrient media were treated with samples at different concentrations, respectively. • 4) After 100 μL of each of the liquid nutrient media treated with the samples was dispensed, 10 μL of the prepared strain was inoculated to each medium. • 5) After the strain was cultured for 72 hours under anaerobic culture conditions, the number of bacteria was measured and analyzed.

[7] = Measurement of absorbance (spectrophotometer); type: physicochemical; settings: 10 μM to 50 μM in organic solvent; UV-A (320 nm to 400 nm), UV-B (280 nm to 320 nm), UV-C (200 nm to 280 nm), FIG. 8
Method: • 1) Resveratrone was dissolved in an organic solvent at a concentration of 10 μM to 50 μM. • 2) The absorbance of resveratrone was measured by using a spectrophotometer.

## CC(=O)/C=C/c1ccc2cc(O)cc(O)c2c1 [resveratrone, Resveratrone]
[1]
  increase in number of cells: 20%
[2]
  radical scavenging ability: radical scavenging ability was confirmed
B16F10 cells [3]
  inhibition of intracellular melanin synthesis: inhibition of melanin synthesis was confirmed
B16F10 cells [4]
  inhibition of extracellular melanin synthesis: inhibition of melanin synthesis was confirmed
[5]
  inhibition of tyrosinase activity: inhibition of tyrosinase activity was confirmed
[6]
  increase in collagen synthesis: increase in collagen synthesis was confirmed
Propionibacterium acnes
  inhibition of bacterial growth: inhibition of bacterial growth was confirmed
[7]
  UV absorption: absorption was confirmed in all UV regions
